# Test results reported in patent publication US20240058265A1, “TREATMENT OF OCULAR DISEASES USING ENDOTHELIN RECEPTOR ANTAGONISTS” (Perfuse Therapeutics, Inc., priority 2021, published 2024).
# Several values for one entry are separate records, joined by “and”; a condition that tells them apart may be missing. Identical values can stand only once. Like-named read-outs stand apart in the source and are kept apart here.
# Columns and labels:
# ET-1 induced vasospasm = experiment: Rabbit ET-1 induced vasospasm model, retinal blood flow (OCT-A, FA); type: in vivo, rabbit (Oryctolagus cuniculus)
# Description: Adult, male Dutch-belted rabbits were given a 20 μl intravitreal injection (IVT) of 0.5 μg of ET-1 followed by a 20 μl intravitreal injection of 10-100 μg Edonentan given 30 min after the ET-1 administration. IOP, optical coherence tomography—angiography (OCT-A), and fluorescein angiograms (FA) were performed at pre-specified time points (30, 45, 60, and 75 min) following ET-1 and Edonentan administration to assess retinal blood flow changes induced by ET-1+/−Edonentan. […] To evaluate the effect of retinal blood flow following intravitreally administered endothelin-1 (ET-1) followed by the antagonist Edonentan in the rabbit, rabbits (Oryctolagus cuniculus) were given a 20 μL intravitreal injection of ET-1 in the left eye followed by a 20 μL intravitreal injection of Edonentan at 2 (or 3) different doses (e.g. 0.1 μg, 0.5 μg, 2.5 μg). The pulse ox, tonometry, optical coherence tomography angiography (OCTA), fluorescein angiography (FA) and retinal leakage scoring were performed for evaluation.
# [1] = test system: laser-induced glaucoma eye; experiment: Laser-induced glaucoma non-human primate, intraocular pressure after topical administration; type: in vivo, rhesus macaque, Macaca Mulatta; settings: 50 μL eyedrop 2 mg/mL
# Description: Non-human primates (rhesus macaque, Macaca Mulatta) were obtained for this study. One eye of each animal underwent induction of elevation of intraocular pressure (TOP) by repeated laser photocoagulation of the trabecular meshwork. Imaging sessions were repeated to monitor the optic nerve head (ONH) and retinal structural changes. A single dose of 0.5% Timolol or a single dose of 2 mg/mL Edonentan was topically administered to three non-human primates that have laser-induced glaucoma in their right eyes (OD) with 1-week wash-out in a randomized order.
# [2] = Pharmacokinetics after topical administration in the rabbit; type: in vivo, Dutch-belted rabbits; settings: single topical eye drop 100 μg, 10 minutes, 2 and 7 hours
# Description: To determine the pharmacokinetic properties of Edonentan following topical administration in the rabbit, rabbits (Dutch-belted rabbits) received an eye drop in both eyes (100 μg of Edonentan, 35 μL dose volume/eye). After the administrations, the animals (N=2) were euthanized at different time points (e.g. 10 minutes (immediately after pot-dose), 2 and 7 hours) and tissues were collected for analysis. List of tissues collected include plasma, retina, vitreous humor and bulbar conjunctiva.
# Permeability (PAMPA) = type: in vitro ADME
# Source text: (§1) In the above table, the physicochemical data, e.g., solubility, were obtained following standard protocols known in the field (see, e.g., Reis et al., Mini Rev Med Chem., 2010, 10(11):1071-6; Avdeef et al., Expert Opin Drug Metab Toxicol., 2005, 1(2):325-42; Bharate et al., Comb Chem High Throughput Screen., 2016, 19(6):461-9; and Jain et al., J Pharm Biomed Anal., 2013, 86:11-35.); and the biochemical data, i.e., potency for ETA/ETB, were obtained following the protocols known in the field (see, e.g., Kirkby et al., Br J Pharmacol., 2008, 153(6):1105-19; and Maguire et al., Br J Pharmacol., 2014, 171(24):5555-72.).
# [3] = test system: laser-induced glaucoma eye; experiment: Laser-induced glaucoma non-human primate, optic nerve head blood flow (LSFG) after IVT administration; type: in vivo, rhesus macaque, Macaca Mulatta; settings: IVT 50 μL of 0.02, 0.2 or 2.0 mg/mL, over 6 hours, glaucomatous eye
# Description: Non-human primates (rhesus macaque, Macaca Mulatta) were obtained for this study. One eye of each animal underwent induction of elevation of intraocular pressure (TOP) by repeated laser photocoagulation of the trabecular meshwork. Imaging sessions were repeated to monitor the optic nerve head (ONH) and retinal structural changes. A study was performed to compare an experimental glaucoma eye and a contralateral healthy eye (control) of three non-human primates in global average mean blur rate (MBR) and MBR change from baseline over time as an index of ONH blood flow in a laser-induced glaucoma model. More specifically, a vehicle control, 0.02 mg/mL of Edonentan, 0.2 mg/mL of Edonentan, or 2.0 mg/mL of Edonentan was intravitreally administered (50 μL) to a glaucomatous eye of each of three non-human primates (rhesus macaque, Macaca Mulatta). These graphs show the ONH blood flow in the three non-human primates after IVT administration of a vehicle alone (FIG. 7A, FIG. 7E, and FIG. 7I), 0.02 mg/mL of Edonentan (FIG. 7B, FIG. 7F, and FIG. 7J), 0.2 mg/mL of Edonentan (FIG. 7C, FIG. 7G, and FIG. 7K) or 2.0 mg/mL of Edonentan (FIG. 7D, FIG. 7H, and FIG. 7L).
# [4] = Solubility (pH 2, pH 7, ethyl acetate); type: physicochemical
# Source text: as §1
# Stability in solid state = type: physicochemical; settings: 2 h@125° C.
# Source text: as §1
smiles,measurement,setting,value
"Cc1onc(NS(=O)(=O)c2ccccc2-c2ccc(-c3ncco3)cc2CN(C)C(=O)CC(C)(C)C)c1C [Edonentan, N-[[2′-[[(4,5-dimethyl-3-isoxazolyl)amino]sulfonyl]-4-(2-oxazolyl)[1,1′-biphenyl]-2-yl]methyl]-N,3,3-trimethylbutanamide]","Fluorescein dye velocity as an index of retinal blood flow, dose dependence","ET-1 induced vasospasm; 0.1 μg ET-1 and 0.1, 0.5, 2.5 or 10 μg Edonentan IVT (FIG. 8A, 8B)",dose-response
same,"Effect of ET-1 (retinal vasoconstriction), fluorescein angiography","ET-1 induced vasospasm; 0.5 μg ET-1 IVT, then 10 μg Edonentan IVT, within 90 min (60 min after Edonentan)",reversed
same,Fluorescein dye velocity as an index of retinal blood flow,"ET-1 induced vasospasm; healthy rabbits, 0.5 μg ET-1 and 10 μg antagonist IVT (FIG. 3)",improved to control levels
same,IOP reduction from pre-dose to post-dose,"[1]; Non-human Primate 1, contralateral healthy eye, 120 minutes",about 10%
same,IOP reduction from pre-dose to post-dose,"[1]; Non-human Primate 1, experimental glaucoma eye, 120 minutes",about 60%
same,IOP reduction from pre-dose to post-dose,"[1]; Non-human Primate 2, contralateral healthy eye, 15 minutes",about 20%
same,IOP reduction from pre-dose to post-dose,"[1]; Non-human Primate 2, contralateral healthy eye, 120 minutes",about 0%
same,IOP reduction from pre-dose to post-dose,"[1]; Non-human Primate 2, experimental glaucoma eye, 15 minutes",about 50%
same,IOP reduction from pre-dose to post-dose,"[1]; Non-human Primate 2, experimental glaucoma eye, 120 minutes",about 30%
same,IOP reduction from pre-dose to post-dose,"[1]; Non-human Primate 3, contralateral healthy eye, 15 minutes",about 10%
same,IOP reduction from pre-dose to post-dose,"[1]; Non-human Primate 3, contralateral healthy eye, 120 minutes",about 40%
same,IOP reduction from pre-dose to post-dose,"[1]; Non-human Primate 3, experimental glaucoma eye, 15 minutes",about 40%
same,IOP reduction from pre-dose to post-dose,"[1]; Non-human Primate 3, experimental glaucoma eye, 120 minutes",about 40%
same,"Detection in plasma, retina, vitreous humor and bulbar conjunctiva",[2],detected in all tissues examined at all timepoints
same,Permeability (rating),Permeability (PAMPA),Mid-High
same,"ONH blood flow (mean blur rate, LSFG)",[3],improvement of ONH blood flow in a dose-dependent manner
same,Solubility in Ethyl Acetate (rating),[4]; ethyl acetate,Good
same,solubility,"[4]; ethyl acetate, organic solvent or mixture, read-out: Solubility in Ethyl Acetate",> 8900 µg/mL and > 16800 µM
same,solubility,"[4]; pH 2, simulated gastric fluid, read-out: Solubility at pH 2",< 0.54 µg/mL and < 1 µM
same,Solubility at pH 7,"[4]; pH 7, amorphous form",607 μM
same,Stability in Solid State (verdict),Stability in solid state,Stable
